Our source for the IC50 values is ChEMBL document CHEMBL1124315, “N- and 2-substituted N-(phenylsulfonyl)glycines as inhibitors of rat lens aldose reductase” (J Med Chem, 1989).

Where only a bound is given, the exact number is not on record here.

For this assay, the target named is Aldo-keto reductase family 1 member B1 (Rattus norvegicus, UniProt P07943). Nature of the assay: Inhibitory concentration against aldose reductase obtained from rat lens.
Molecule `Cc1ccc(S(=O)(=O)NCC(=O)O)cc1` showed an IC50 of 32 µM. Molecule `O=C(O)CNS(=O)(=O)c1ccc(Cl)cc1` returned an IC50 of 130 µM.

As for `O=C(O)CN(c1ccccc1Cl)S(=O)(=O)c1ccccc1`, the IC50 was determined as 7.6 µM. `O=C(O)CN(c1ccccc1)S(=O)(=O)c1ccccc1` showed an IC50 of 29 µM. In turn, `O=C(O)CNS(=O)(=O)c1ccccc1[N+](=O)[O-]` returned a half-inhibitory concentration (IC50) of 13 µM. This IC50 is about 2.2-fold lower than that of the molecule before. For the molecule `O=C(O)CN(c1cccc(Cl)c1)S(=O)(=O)c1ccccc1`, the IC50 was found to be 13 µM. The figure for `O=C(O)[C@H](NS(=O)(=O)c1ccc(Cl)cc1)c1ccccc1` is 340 µM; for `O=C(O)C(NS(=O)(=O)c1ccc2ccccc2c1)c1ccccc1` (single isomer, unassigned; 6n) it is 2.5 µM. Consider `COc1ccc(S(=O)(=O)NCC(=O)O)cc1`, for which the IC50 came out at 31 µM. This IC50 lies about 12-fold higher than the previous one.

On to `Cc1ccc(S(=O)(=O)Nc2ccccc2C(=O)O)cc1`, for which the IC50 came out at 69 µM.

For `COc1ccc(S(=O)(=O)N[C@@H](C(=O)O)c2ccccc2)cc1`, it took 36 µM to reach half-maximal inhibition (IC50). This IC50 is about 1.9-fold lower than that of the molecule before. `Nc1cccc(S(=O)(=O)N(CC(=O)O)c2ccccc2)c1` displayed an IC50 of 27 µM. This IC50 and that of the molecule before are within 1.5-fold of each other. In turn, `O=C(O)CN(c1ccccc1)S(=O)(=O)c1ccc2ccccc2c1` registered an IC50 of 4.5 µM. As for `O=C(O)[C@H](NS(=O)(=O)c1ccc([N+](=O)[O-])cc1)c1ccccc1`, the figure is 980 µM; as for `O=C(O)[C@@H](NS(=O)(=O)c1ccc(F)cc1)c1ccccc1`, 25 µM; as for `Nc1ccccc1S(=O)(=O)N(CC(=O)O)c1ccccc1`, 67 µM. In turn, `COc1ccc(S(=O)(=O)Nc2ccccc2C(=O)O)cc1` showed an IC50 of 130 µM. On to `O=C(O)c1ccccc1NS(=O)(=O)c1cccc2ccccc12`, for which the IC50 came out at 8.3 µM. This IC50 lies about 16-fold lower than the previous one.

`Cc1ccc(N(CC(=O)O)S(=O)(=O)c2ccccc2)cc1` displayed an IC50 of 26 µM. This IC50 lies about 3.1-fold higher than the previous one. The molecule `Cc1ccc(S(=O)(=O)N[C@@H](C(=O)O)c2ccccc2)cc1` had an IC50 of 90 µM. For `O=C(O)[C@H](NS(=O)(=O)c1ccccc1)c1ccccc1`, the midpoint of inhibition, the IC50, lay at 460 µM.

For `O=C(O)CNS(=O)(=O)c1ccc2ccccc2c1`, 0.4 µM corresponded to half-maximal inhibition (IC50).

In the case of `CN(c1ccccc1C(=O)O)S(=O)(=O)c1ccc2ccccc2c1`, half-maximal inhibition (IC50) required 400 µM. Compared with the last molecule, the IC50 is about 1000-fold higher. The figure for `O=C(O)CNS(=O)(=O)c1ccc(F)cc1` is 43 µM; for `CN(c1ccccc1C(=O)O)S(=O)(=O)c1ccc([N+](=O)[O-])cc1` it is above 2000 µM. Turning to `O=C(O)CN(c1ccc(F)cc1)S(=O)(=O)c1ccccc1`, the midpoint of inhibition, the IC50, lay at 22 µM. The molecule `COc1ccc(S(=O)(=O)N(C)c2ccccc2C(=O)O)cc1` returned an IC50 above 2000 µM. As for `Cc1ccccc1N(CC(=O)O)S(=O)(=O)c1ccccc1`, the figure is 340 µM. On to `COc1ccc(S(=O)(=O)N(CC(=O)O)c2ccccc2)cc1`, for which the IC50 is 1.8 µM. As for `Nc1ccc(S(=O)(=O)N(CC(=O)O)c2ccccc2)cc1`, inhibition was half-maximal at 9.3 µM (IC50).

Consider `O=C(O)c1ccccc1NS(=O)(=O)c1ccccc1`, for which the IC50 amounted to 65 µM. Regarding `O=C(O)CNS(=O)(=O)c1ccc([N+](=O)[O-])cc1`, the 50% inhibitory concentration (IC50) came out at 79 µM. `COc1ccc(S(=O)(=O)N[C@H](C(=O)O)c2ccccc2)cc1` came in with an IC50 of 13 µM. This IC50 lies about 6.1-fold lower than the previous one. The figure for `Cc1ccc(S(=O)(=O)N[C@H](C(=O)O)c2ccccc2)cc1` is 8.9 µM; for `O=C(O)c1ccccc1NS(=O)(=O)c1ccc(Br)cc1` it is 85 µM; for `O=C(O)CNS(=O)(=O)c1ccccc1` it is 130 µM. With `O=C(O)CN(c1ccccc1)S(=O)(=O)c1cccc([N+](=O)[O-])c1`, the IC50 worked out at 1.3 µM. On to `O=C(O)CN(c1ccccc1)S(=O)(=O)c1ccc(NC(=O)c2ccccc2)cc1`, for which the IC50 was found to be 0.38 µM. The figure for `O=C(O)[C@H](NS(=O)(=O)c1ccc(F)cc1)c1ccccc1` is 960 µM.

Molecule `Cc1ccc(S(=O)(=O)N(CC(=O)O)c2ccccc2)cc1` returned an IC50 of 14 µM. `Nc1ccc(S(=O)(=O)Nc2ccccc2C(=O)O)cc1` had an IC50 of 7.9 µM. As to `Nc1ccc(N(CC(=O)O)S(=O)(=O)c2ccccc2)cc1`, the IC50 turned out to be 68 µM. Compared with the last molecule, the IC50 is about 8.6-fold higher.

The molecule `Cc1cccc(N(CC(=O)O)S(=O)(=O)c2ccccc2)c1` gave an IC50 of 27 µM. Regarding `O=C(O)C(NS(=O)(=O)c1ccc2ccccc2c1)c1ccccc1` (single isomer, unassigned; 6m), inhibition was half-maximal at 230 µM (IC50). Compared with the last molecule, the IC50 is about 8.5-fold higher. On to `O=C(O)c1ccccc1NS(=O)(=O)c1ccc2ccccc2c1`, for which the IC50 came to 5.7 µM. This IC50 is about 40-fold lower than that of the molecule before.

Molecule `O=C(O)[C@@H](NS(=O)(=O)c1ccc(Cl)cc1)c1ccccc1` had an IC50 of 7.1 µM. The molecule `O=C(O)CN(c1cccc([N+](=O)[O-])c1)S(=O)(=O)c1ccccc1` displayed an IC50 of 8.7 µM.

Molecule `O=C(O)CN(c1ccccc1)S(=O)(=O)c1ccc(F)cc1` gave an IC50 of 26 µM. This IC50 lies about 3-fold higher than the previous one. `O=C(O)CN(c1ccc(Cl)cc1)S(=O)(=O)c1ccccc1` yielded an IC50 of 27 µM. The molecule `O=C(O)CNS(=O)(=O)c1ccc(NC(=O)c2ccccc2)cc1` gave a half-inhibitory concentration (IC50) of 0.88 µM. On to `O=C(O)c1ccccc1NS(=O)(=O)c1ccc(Cl)cc1`, for which the midpoint of inhibition, the IC50, lay at 130 µM. As to `O=C(O)c1ccccc1NS(=O)(=O)c1ccc([N+](=O)[O-])cc1`, the IC50 came out at 390 µM. This IC50 is about 3-fold higher than that of the molecule before. Molecule `O=C(O)[C@@H](NS(=O)(=O)c1ccc([N+](=O)[O-])cc1)c1ccccc1` returned an IC50 of 8.6 µM.

As to `O=C(O)CN(c1ccccc1)S(=O)(=O)c1ccc([N+](=O)[O-])cc1`, half-maximal inhibition (IC50) required 4.4 µM. The molecule `O=C(O)CN(c1ccccc1)S(=O)(=O)c1ccc(Cl)cc1` gave an IC50 of 16 µM. As for `O=C(O)CN(c1ccccc1)S(=O)(=O)c1ccccc1[N+](=O)[O-]`, the figure is 3.6 µM; as for `Nc1ccccc1S(=O)(=O)NCC(=O)O`, 37 µM.

Regarding `O=C(O)[C@@H](NS(=O)(=O)c1ccccc1)c1ccccc1`, the 50% inhibitory concentration (IC50) stood at 11 µM. This IC50 is about 3.4-fold lower than that of the molecule before.

`COc1ccc(N(CC(=O)O)S(=O)(=O)c2ccccc2)cc1` gave an IC50 of 38 µM.

One may read the IC50 as the concentration at which inhibition is half-maximal. A lower IC50 goes with inhibition by little substance.
